These results are taken from paper PMC11676817, “Antiproliferative and Morphological Analysis Triggered by Drugs Contained in the Medicines for Malaria Venture COVID-Box Against Toxoplasma gondii Tachyzoites” (Microorganisms, 2024).

For series [1] the following is noted: Human, cited from earlier work.
The test system of series [2] is Toxoplasma gondii tachyzoites of the RH strain. The series can be described thus: microbe, parasite or virus in culture. Format: cell-based. As to conditions: Toxoplasma gondii, 1000 nM.
For series [3], the system named is T. gondii tachyzoites. The series is described as follows: Transmission electron microscopy of treated tachyzoites. It counts as cell-based, Toxoplasma gondii. As to conditions: 1 µM, 48 h. The procedure: NHDF cultures infected with T. gondii were treated with compounds and fixed with 2.5% glutaraldehyde (EM Grade—Ted Pella Inc., Redding, CA, USA) in 0.1 M sodium cacodylate buffer pH 7.4 (Ted Pella Inc.). Cells were post-fixed with 1% osmium tetroxide, 1.25% potassium ferrocyanide, and 5 mM CaCl2, in 0.1 M sodium cacodylate buffer (pH 7.4). The sample fixation and processing for microscopy were performed as previously described. Samples were dehydrated in alcohol solutions of increasing concentrations (35–100%) and embedded in epoxy resin (Polybed 812, Polysciences). Ultrathin sections were collected in copper grids 300 mesh (Ted Pella Inc.), stained with uranyl acetate and lead citrate, and then observed in a Fei TecNai G2 120 kV Spirit Electron Microscope (FEI Company, Eindhoven, The Netherlands).

The test system of a further series is T. gondii. As to conditions: in vivo administration, murine model of chronic toxoplasmosis; ref [23],[24]; cited from earlier work.
Series [4] relates to Toxoplasma gondii tachyzoites of the RH strain. As to conditions: read-out: IC50 (μM) in Tachyzoites; RH strain in NHDF cells, plaque assay, 7 days of treatment.
In series [5] the test system is T. gondii tachyzoites. As to conditions: 72 h of treatment; ref [23],[24]; read-out: IC50 against T. gondii; cited from earlier work.
Series [6] deals with T. gondii tachyzoites. The series is described as follows: Immunofluorescence microscopy of treated tachyzoites (aberrant cell division, rhoptry morphology). As to conditions: 1 µM, 24 h, IMC1 and DAPI labeling.
Experimental: Rabbit anti-IMC1 (1:1000) and anti-ARO (1:1000) (kindly provided by Dr. Dominique Soldati, Universite de Geneve, Switzerland) were used to label the mother cell and daughter cell pellicles throughout the endodyogeny process and rhoptries, respectively. Mouse anti-SAG1 (1:200; kindly donated by Dr. Tiago Mineo, Universidade Federal de Uberlândia) was used to label the parasite plasma membrane. DAPI (2 µg/mL; Sigma-Aldrich, St. Louis, MO, USA) was used to label the DNA. […] After labeling with antibodies, the coverslips were mounted onto slides using Prolong gold (Life Technologies), and samples were examined on a Zeiss Axio Observer Z1 microscope (Baden-Württemberg, Germany) or Olympus BX60 microscope (Shinjuku City, Tokyo, Japan).

Several values for one entry are separate records, joined by “and”; a condition that tells them apart may be missing. Equal entries are not always repeated.

`C=CCNc1nc(NCC=C)nc(N2CCN(C(c3ccc(F)cc3)c3ccc(F)cc3)CC2)n1` [Almitrine]: in series [1] (ref Table S3 supplementary refs 1, 4, 8, 11, 13, 15, 17, 18, 19, 23, 31), the “Plasma concentration (Cmax)” value was 286.2 ng/mL. Moreover, the Cmax in series [1] (read-out: Plasma concentration (Cmax), ref Table S3 supplementary refs 1, 4, 8, 11, 13, 15, 17, 18, 19, 23) was 599 nM and ≤ 599 nM. For the same molecule, the inhibition at 1 µM in series [2] (24 h, read-out: Inhibition of parasite proliferation) lay in the range of 55 to 60%. Also, the activity at 1 µM in series [2] (24 h of treatment, read-out: Proliferation index (%)) was 44.1%. Moreover, in the series with T. gondii tachyzoites [3], the “Effect on T. gondii ultrastructure (TEM)” value is “induced myelin-like structures”. Also, in the series on T. gondii, the “Effect on the number of cysts” value is “reduced the number of cysts”. The IC50 in series [4] was 0.33 ± 0.04 µM; in the series on T. gondii tachyzoites [5], 420 nM and 320 nM. The “Vacuoles containing tachyzoites with cell division alteration” value with T. gondii tachyzoites [6] came out at 23.9%.
